This note sets out measurements from patent US20090203577A1 (EXELIXIS, INC., priority 2005, published 2009).

Where two headings read alike, the source gives them in different places. Some results are limits rather than exact numbers.

The target of the assay is T1, human farnesoid X receptor (Homo sapiens, UniProt Q96RI1).
T1 construct: CMX-farnesoid X receptor (full length human farnesoid X receptor); expressed in transfected cells; host or cells: CV-1 African Green Monkey Kidney cells
T1 sequence (Q96RI1 1-472 isoform Q96RI1-2): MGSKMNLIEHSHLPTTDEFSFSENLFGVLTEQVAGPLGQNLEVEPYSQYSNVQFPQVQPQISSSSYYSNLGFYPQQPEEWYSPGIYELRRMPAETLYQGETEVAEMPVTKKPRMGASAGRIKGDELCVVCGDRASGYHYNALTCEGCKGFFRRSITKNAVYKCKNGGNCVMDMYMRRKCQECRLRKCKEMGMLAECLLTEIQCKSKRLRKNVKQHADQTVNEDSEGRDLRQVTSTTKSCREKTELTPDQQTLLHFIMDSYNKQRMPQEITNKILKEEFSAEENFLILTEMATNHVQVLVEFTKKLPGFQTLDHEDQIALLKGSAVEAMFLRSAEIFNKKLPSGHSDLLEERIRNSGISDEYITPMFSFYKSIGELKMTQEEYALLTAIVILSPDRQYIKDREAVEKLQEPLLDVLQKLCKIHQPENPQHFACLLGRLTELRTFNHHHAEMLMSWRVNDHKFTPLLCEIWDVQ
T1 sequence (P19793 1-462 partner): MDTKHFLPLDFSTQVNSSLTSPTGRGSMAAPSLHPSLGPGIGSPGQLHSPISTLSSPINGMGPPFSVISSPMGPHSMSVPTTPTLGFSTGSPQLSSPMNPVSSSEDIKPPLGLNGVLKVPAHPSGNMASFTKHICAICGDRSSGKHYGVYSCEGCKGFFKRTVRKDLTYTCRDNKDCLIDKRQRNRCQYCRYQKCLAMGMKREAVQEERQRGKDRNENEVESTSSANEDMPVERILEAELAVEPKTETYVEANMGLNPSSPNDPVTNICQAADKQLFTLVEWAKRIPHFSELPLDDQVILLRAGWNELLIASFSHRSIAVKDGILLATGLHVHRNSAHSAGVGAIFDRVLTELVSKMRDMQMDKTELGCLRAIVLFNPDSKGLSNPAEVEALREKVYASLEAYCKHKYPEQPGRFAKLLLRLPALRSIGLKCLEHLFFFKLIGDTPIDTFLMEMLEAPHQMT
Kind of assay: FXR in vitro assays (farnesoid X receptor/ECREx7 co-transfection assay, TR-FRET assay), Table I. Format: cell-based. As to conditions: for Emax: read-out: % Efficacy. The method in brief:
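CV-1 monkey kidney cells transfected for an FXR/ECREx7 luciferase co-transfection reporter; luciferase read 18-20 h later in lysates. 8-point dose-response at ½-log spacing, 4 wells per point; EC50/IC50 from four-parameter Hill fit, averaged over at least 3 independent experiments.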
Background: TR-FRET usually uses a lanthanide donor and a delayed reading to cut background.

Where [1] appears, read: agonist activity, one or more of the in vitro assays, read-out: EC50.

As for `CCN(CC)CCCOc1ccc2c3c([nH]c2c1)C(C(=O)OC(C)C)=CN(C(=O)c1ccc(F)c(F)c1)CC3(C)C` [Example 104], the Emax fell in the range of 60 to 80%. Under setting [1], the concentration for a half-maximal effect (EC50) (usually the midpoint of the concentration-response curve) fell in the range of 100 to 1000 nM.

With `COCCOc1ccc2c3c([nH]c2c1)C(C(=O)OC(C)C)=CN(C(=O)c1ccc(F)c(F)c1)CC3(C)C` [Example 105, 1-methylethyl 3-[(3,4-difluorophenyl)carbonyl]-1,1-dimethyl-8-{[2-(methyloxy)ethyl]oxy}-1,2,3,6-tetrahydroazepino[4,5-b]indole-5-carboxylate], the Emax was 80 to 100%. Also, under setting [1], the concentration for a half-maximal effect (EC50) fell in the range of 100 to 1000 nM.

For the compound `CC(=O)C1=CN(C(=O)c2ccc(F)c(F)c2)CC(C)(C)c2c1[nH]c1ccccc21` [Example 106, 1-{3-[(3,4-difluorophenyl)carbonyl]-1,1-dimethyl-1,2,3,6-tetrahydroazepino[4,5-b]indol-5-yl}ethanone], the Emax is over 100%. Besides, under setting [1], the EC50 lay in the range of 100 to 1000 nM.

Take `CC(C)OC(=O)C1=CN(C(=O)c2ccc(CN(C)C)cc2)CC(C)(C)c2c1[nH]c1ccccc21` [Example 107, 1-methylethyl 3-({4-[(dimethylamino)methyl]phenyl}carbonyl)-1,1-dimethyl-1,2,3,6-tetrahydroazepino[4,5-b]indole-5-carboxylate]: the Emax is over 100%. Also, the EC50 under setting [1] was 1000 to 10000 nM.

As to `CC(C)OC(=O)C1=CN(C(=O)c2cccc(CN(C)C)c2)CC(C)(C)c2c1[nH]c1ccccc21` [Example 108, 1-methylethyl 3-({3-[(dimethylamino)methyl]phenyl}-carbonyl)-1,1-dimethyl-1,2,3,6-tetrahydroazepino[4,5-b]indole-5-carboxylate], the Emax was over 100%. Under setting [1], the concentration for a half-maximal effect (EC50) lay within 100 to 1000 nM.

On to `Cc1cc(C(=O)N2C=C(C(=O)OC(C)C)c3[nH]c4ccccc4c3C(C)(C)C2)no1` [Example 109, 1-methylethyl 1,1-dimethyl-3-[(5-methylisoxazol-3-yl)carbonyl]-1,2,3,6-tetrahydroazepino[4,5-b]indole-5-carboxylate], for which the Emax is over 100%. Moreover, the EC50 under setting [1] was 100 to 1000 nM.

For `CC(C)OC(=O)C1=CN(C(=O)c2ccc(F)cc2C(F)(F)F)CC(C)(C)c2c1[nH]c1ccccc21` [Example 110, 1-methylethyl 3-{[4-fluoro-2-(trifluoromethyl)phenyl]car-bonyl}-1,1-dimethyl-1,2,3,6-tetrahydroazepino[4,5-b]indole-5-carboxylate], the Emax was over 100%. The EC50 under setting [1] was 10 to 100 nM.

Regarding `CC(C)OC(=O)C1=CN(C(=O)c2ccc(F)cc2Cl)CC(C)(C)c2c1[nH]c1ccccc21` [Example 111, 1-methylethyl 3-[(2-chloro-4-fluorophenyl)carbonyl]-1,1-dimethyl-1,2,3,6-tetrahydroazepino[4,5-b]indole-5-carboxylate], the Emax is over 100%. For the same compound, the EC50 under setting [1] fell in the range of 10 to 100 nM.

For `CCN(CC)CCCNC(=O)Oc1ccc2c3c([nH]c2c1)C(C(=O)OC(C)C)=CN(C(=O)c1ccc(F)c(F)c1)CC3(C)C` [Example 112, 1-methylethyl 8-[({[3-(diethylamino)propyl]amino}carbonyl)oxy]-3-[(3,4-difluorophenyl)carbonyl]-1,1-dimethyl-1,2,3,6-tetrahydroazepino[4,5-b]indole-5-carboxylate], the concentration for a half-maximal effect (EC50) lay within 1000 to 10000 nM and the Emax was over 100%.

`CC(C)OC(=O)C1=CN(C(=O)c2cccc(CCl)c2)CC(C)(C)c2c1[nH]c1ccccc21` [Example 113, 1-methylethyl 3-{[3-(chloromethyl)phenyl]car-bonyl}-1,1-dimethyl-1,2,3,6-tetrahydroazepino[4,5-b]indole-5-carboxylate]: the Emax was over 100%. Further, the EC50 under setting [1] was in the range of 10 to 100 nM.

Regarding `CCN(CC)Cc1cccc(C(=O)N2C=C(C(=O)OC(C)C)c3[nH]c4ccccc4c3C(C)(C)C2)c1` [Example 114, 1-methylethyl 3-({3-[(diethylamino)methyl]phenyl}carbonyl)-1,1-dimethyl-1,2,3,6-tetrahydroazepino[4,5-b]indole-5-carboxylate], the Emax is over 100%. Besides, the EC50 under setting [1] lay within 100 to 1000 nM.

As for `CC(C)OC(=O)C1=CN(C(=O)c2ccc(F)c(F)c2)CC(C)(C)c2c1[nH]c1ccc(OCc3ccccc3)cc21` [Example 115, 1-methylethyl 3-[(3,4-difluorophenyl)carbonyl]-1,1-dimethyl-9-[(phenylmethyl)oxy]-1,2,3,6-tetrahydroazepino[4,5-b]indole-5-carboxylate], the Emax was over 100%. Besides, under setting [1], the EC50 is 10 to 100 nM.

For `CC(C)OC(=O)C1=CN(C(=O)c2cccc(CN3CCCC3)c2)CC(C)(C)c2c1[nH]c1ccccc21` [Example 117, 1-methylethyl 1,1-dimethyl-3-{[3-(pyrrolidin-1-ylmethyl)phenyl]carbonyl}-1,2,3,6-tetrahydroazepino[4,5-b]indole-5-carboxylate], the Emax is over 100%.

Turning to `CCN1CCN(Cc2cccc(C(=O)N3C=C(C(=O)OC(C)C)c4[nH]c5ccccc5c4C(C)(C)C3)c2)CC1` [Example 120, 1-methylethyl 3-({3-[(4-ethylpiperazin-1-yl)methyl]phenyl}carbonyl)-1,1-dimethyl-1,2,3,6-tetrahydroazepino[4,5-b]indole-5-carboxylate], the Emax is over 100%. Further, under setting [1], the EC50 fell in the range of 100 to 1000 nM.

On to `CC1(C)CN(C(=O)c2ccc(F)c(F)c2)C=C(C(=O)CCl)c2[nH]c3ccccc3c21` [Example 121, 2-chloro-1-{3-[(3,4-difluorophenyl)carbonyl]-1,1-dimethyl-1,2,3,6-tetrahydroazepino[4,5-b]indol-5-yl}ethanone], for which the Emax is under 40%. Further, under setting [1], the EC50 fell in the range of 100 to 1000 nM.

In the case of `CC1(C)OCC(COC(=O)C2=CN(C(=O)c3ccc(F)c(F)c3)CC(C)(C)c3c2[nH]c2ccccc32)O1` (stereo not drawn) [Example 122, (2,2-dimethyl-1,3-dioxolan-4-yl)methyl 3-[(3,4-difluorophenyl)carbonyl]-1,1-dimethyl-1,2,3,6-tetrahydroazepino[4,5-b]indole-5-carboxylate], the Emax was over 100%. For the same compound, under setting [1], the EC50 was 100 to 1000 nM.

As for `COC(=O)C1=CN(C(=O)c2ccc(F)c(F)c2)CC(C)(C)c2c1[nH]c1ccccc21` [Example 123, methyl 3-[(3,4-difluorophenyl)carbonyl]-1,1-dimethyl-1,2,3,6-tetrahydroazepino[4,5-b]indole-5-carboxylate], the Emax is over 100%. Under setting [1], the EC50 lay within 100 to 1000 nM.

`CC1(C)CN(C(=O)c2ccc(F)c(F)c2)C=C(C(=O)OCC(O)CO)c2[nH]c3ccccc3c21` (stereo not drawn) [Example 124, 2,3-dihydroxypropyl 3-[(3,4-difluorophenyl)carbonyl]-1,1-dimethyl-1,2,3,6-tetrahydroazepino[4,5-b]indole-5-carboxylate]: the Emax was over 100%. For the same compound, the EC50 under setting [1] lay within 10 to 100 nM.

In the case of `CC(C)OC(=O)C1=CN(C(=O)c2cccc(CN3CCOCC3)c2)CC(C)(C)c2c1[nH]c1ccccc21` [Example 125, 1-methylethyl 1,1-dimethyl-3-{[3-(morpholin-4-ylmethyl)phenyl]carbonyl}-1,2,3,6-tetrahydroazepino[4,5-b]indole-5-carboxylate], the Emax was over 100%.

`CC(C)OC(=O)C1=CN(C(=O)c2ccc(F)c(F)c2)CC(C)(C)c2c1[nH]c1cc(OC(=O)NCCN3CCCC3)ccc21` [Example 126, 1-methylethyl 3-[(3,4-difluorophenyl)carbonyl]-1,1-dimethyl-8-({[(2-pyrrolidin-1-ylethyl)amino]carbonyl}oxy)-1,2,3,6-tetrahydroazepino[4,5-b]indole-5-carboxylate]: the half-maximal effective concentration (EC50) was 10 to 100 nM and the Emax is over 100%.

For `CC(C)OC(=O)C1=CN(C(=O)c2cccc(C(F)(F)F)c2)CC(C)(C)c2c1[nH]c1ccccc21` [Example 128, 1-methylethyl 1,1-dimethyl-3-{[3-(trifluoromethyl)phenyl]car-bonyl}-1,2,3,6-tetrahydroazepino[4,5-b]indole-carboxylate], the Emax was over 100%. The EC50 under setting [1] lay within 10 to 100 nM.

With `CC1(C)CN(C(=O)c2ccc(F)c(F)c2)C=C(C(=O)OC[C@H](O)CO)c2[nH]c3ccccc3c21` [Example 129, (2R)-2,3-dihydroxypropyl 3-[(3,4-difluorophenyl)carbonyl]-1,1-dimethyl-1,2,3,6-tetrahydroazepino[4,5-b]indole-5-carboxylate], the Emax is over 100%. Also, under setting [1], the EC50 was 100 to 1000 nM.
